According to patent publication US10206955B2, “Compositions of ascorbic acid and bone morphogenetic protein 4 (BMP-4) for cell growth and uses related thereo” (EMORY UNIVERSITY, priority 2014, dated 2019):

How the values were obtained:
[1] = test system: aMHC-GFP-MTTFs; assay: Quantification of GFP+ cells in aMHC-GFP reporter MTTFs; format: cell-based, mouse; details: for GFP expression (aMHC-GFP): agent alone
Experimental: (§1) To enhance the reprogramming potential of miRNAs, AA and BMP4 were added one day after miR-transfection (FIG. 1A). Between 4-6 days, spontaneously contracting cells appeared in groups treated with […], miR-208b-3p, or miR-499-5p, but not with miR-208a-3p and miR-208b-5p or all miRNA. The latter groups were excluded from further experiments. To further confirm the results, MTTFs were isolated from aMHC-GFP reporter mice (aMHC-GFP-MTTFs) and quantified GFP+ cells after treating with […], miR-208b-3p, or miR-499-5p in combination with AA and BMP4. […] TNNT2+ cells occupied 1.8±0.6% of MTTFs treated with miR-208b-3p, AA and BMP4 by flow cytometry analyses. This reprogramming rate is smaller than the number of aMHC-GFP+ cells because TNNT2 is a more specific and mature marker for CMs.
(§2) Mouse tail-tip fibroblasts (MTTFs) isolated from 1-4 month old transgenic mice carrying a GFP reporter driven by αMHC or human ubiquitin C (UBC) promoters were cultured in DMEM/F-12 (Invitrogen) containing 10% FBS (Atlanta Biologicals), 1% Glutamax (Invitrogen), 1% non-essential amino acids (Invitrogen) and 1% Antibiotic-Antimycotic (Invitrogen). αMHC-GFP transgenic mice were kindly given by Dr. Mark Sussman (San Diego State University) and UBC-GFP mice (C57BL/6-Tg(UBC-GFP)30Scha/J) were purchased from the Jackson Laboratory. After 3-5 passages, MTTFs were frozen until use. […]

[2] = test system: mouse tail-tip fibroblasts (MTTFs); assay: Spontaneous contraction of miRNA-transfected MTTFs after adding AA and BMP4; format: cell-based; details: AA and BMP4 added one day after miR-transfection; between 4-6 days
Experimental: as §1
(§3) Mouse tail-tip fibroblasts (MTTFs) isolated from 1-4 month old transgenic mice carrying a GFP reporter driven by αMHC or human ubiquitin C (UBC) promoters were cultured in DMEM/F-12 (Invitrogen) containing 10% FBS (Atlanta Biologicals), 1% Glutamax (Invitrogen), 1% non-essential amino acids (Invitrogen) and 1% Antibiotic-Antimycotic (Invitrogen). αMHC-GFP transgenic mice were kindly given by Dr. Mark Sussman (San Diego State University) and UBC-GFP mice (C57BL/6-Tg(UBC-GFP)30Scha/J) were purchased from the Jackson Laboratory. After 3-5 passages, MTTFs were frozen until use. MTTFs at 70-80% of confluence were transfected with a synthetic miRNA mimic (20 nM), miR-1a-2-5p (Qiagen, MSY0017047, 5′-[…]-3′)(SEQ ID NO: 135), miR-208a-3p (Qiagen, MSY0000520, 5′-[…]-3′)(SEQ ID NO: 136), miR-208b-3p (Qiagen, MSY0004939, 5′-[…]-3′)(SEQ ID NO: 1), miR-208b-5p (Qiagen, MSY0017280, 5′-[…]-3′)(SEQ ID NO: 137), miR-499-5p (Qiagen, MSY0003482, 5′-[…]-3′) (SEQ ID NO: 3) or Scramble-miR (Dharmacon, CN-001000-01-05) using Lipofectamine 2000 (Invitrogen), and cultured in advanced DMEM/F12 (Invitrogen) containing 5% FBS (Atlanta Biologicals), 0.5% Glutamax (Invitrogen), 0.5% non-essential amino acids and 1% Antibiotic-Antimycotic (Invitrogen) with or without AA (ascorbic acid, Sigma, 0.2 mM) and BMP4 (R&D Systems, 10 ng/ml) for fibroblast reprogramming. Cells on a culture dish spontaneously aggregated as a patch-like CMT on day 10. In the case of no spontaneous formation, the border of a culture dish was scratched and cells were lifted up with a pipette to expedite cell aggregation into a CMT.

[3] = test system: Myh6; assay: mRNA expression of Myh6 (aMHC) in treated MTTFs; format: cell-based, mouse; details: miRNA with AA and BMP4
Experimental: as §1, §2

[4] = test system: mouse tail-tip fibroblasts (MTTFs); assay: Reprogramming of MTTFs with miRNA mimics alone: CM gene expression, ACTN2 immunocytochemistry; format: cell-based; details: miRNA mimic alone, without AA and BMP4
Source text: The reprogramming potential of muscle-specific miRNA mimics, miR-1a-2-5p, miR-208a-3p, miR-208b-3p, miR-208b-5p, and miR-499-5p was investigated in mouse tail-tip fibroblasts (MTTFs). […] Immunocytochemistry confirmed expression of a CM marker sarcomeric α-actinin (ACTN2) in single miRNA transfected cells. However ACTN2 expression was diffuse, sarcomeric organization was poor and spontaneously contracting cells were not observed in any miRNA transfected MTTFs.
as §2

[5] = test system: mouse tail-tip fibroblasts (MTTFs); assay: qRT-PCR of lineage markers at day 6 (vascular-lineage reprogramming); format: cell-based; details: protocol with AA and BMP4
Experimental: as §3, with “Cells on a culture dish spontaneously aggregated as a patch-like CMT on day 10. In the case of no spontaneous formation, the border of a culture dish was scratched and cells were lifted up with a pipette to expedite cell aggregation into a CMT.” left out

O=C1O[C@H]([C@@H](O)CO)C(O)=C1O [AA, (R)-5-((S)-1,2-dihydroxyethyl)-3,4-dihydroxyfuran-2(5H)-one, reference compound]
GFP expression (aMHC-GFP) [1]: did not induce GFP expression

miR-1a-2-5p: synthetic miRNA mimic, Qiagen MSY0017047, 5′-ACAUACUUCUUUAUGUAGUACCCAUA-3′ (SEQ ID NO: 135) (chemistry not given here)
spontaneously contracting cells [2]: appeared | mRNA expression of Myh6 [3]: increased trend

miR-208a-3p: synthetic miRNA mimic, Qiagen MSY0000520, 5′-AUAAGACGAGCAAAAAGCUUGU-3′ (SEQ ID NO: 136) (chemistry not given here)
spontaneously contracting cells [2]: not

miR-208b-3p: synthetic miRNA mimic, Qiagen MSY0004939, 5′-AUAAGACGAACAAAAGGUUUGU-3′ (SEQ ID NO: 1) (listed as RNA, chemistry not given here; listed as Mus musculus)
expression of CM genes Mef2c, Nkx2-5, Gata4 and Myh6 [4]: most effective | spontaneously contracting cells [2]: appeared | GFP expression (aMHC-GFP-positive cells) of MTTFs ([1]; miRNA in combination with AA and BMP4): 22.0±2.6% | mRNA expression of Myh6 [3]: significantly increased | expression of EC and SMC genes (qRT-PCR) [5]: increased expression

miR-208b-5p: synthetic miRNA mimic, Qiagen MSY0017280, 5′-AAGCUUUUUGCUCGCGUUAUGU-3′ (SEQ ID NO: 137) (chemistry not given here)
spontaneously contracting cells [2]: not

miR-499-5p: synthetic miRNA mimic, Qiagen MSY0003482, 5′-UUAAGACUUGCAGUGAUGUUU-3′ (SEQ ID NO: 3) (listed as RNA, chemistry not given here; listed as Mus musculus)
spontaneously contracting cells [2]: appeared

B1: BMP4: secreted disulfide-linked homodimeric BMP-4, a TGF-beta superfamily ligand (R&D Systems) (protein, listed as Homo sapiens)
chain: SPKHHPQRSRKKNKNCRRHSLYVDFSDVGWNDWIVAPPGYQAFYCHGDCPFPLADHLNSTNHAIVQTLVNSVNSSIPKACCVPTELSAISMLYLDEYDKVVLKNYQEMVVEGCGCR
modifications: homodimer
GFP expression (aMHC-GFP) [1]: did not induce GFP expression
